The values below are quoted from earlier work in patent US20190289805A1, “CULTURING METHOD FOR CULTURED LEGUMINOUS ROOTS HAVING INCREASED COUMESTROL CONTENT” (Amorepacific Corporation, priority 2016, published 2019).

In the series the test system is mouse uterus. Particulars: oral administration.

On to `O=c1oc2cc(O)ccc2c2oc3cc(O)ccc3c12` [coumestrol], for which the estrogen effect entry (mature mice) was “has no estrogen effect”. In addition, under “young female mice”, the “estrogen effect (change in weight of uterus)” value was “exhibits an effective estrogen effect”.
